The source made the active and inactive calls.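 The calls were made as follows: active = compounds whose dose curve reaches a melting temperature rise of about 0.39 degC within the tested concentrations; inconclusive = flat curve with moderate shift, or unreliable curve fit; inactive = the rest.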

The target of the first experiment is Fibroblast growth factor 22 (Homo sapiens) (UniProt Q9HCT0). Nature of the experiment: FGF22 binders by thermal shift, dose response, biophysical, SYPRO orange melt, qPCR instrument, dry powder (AID 743116). Conditions: Recombinant FGF22 thermal shift, SYPRO orange fluorescence.
Chain of Fibroblast growth factor 22 (Homo sapiens) (Q9HCT0 whole entry, looked up): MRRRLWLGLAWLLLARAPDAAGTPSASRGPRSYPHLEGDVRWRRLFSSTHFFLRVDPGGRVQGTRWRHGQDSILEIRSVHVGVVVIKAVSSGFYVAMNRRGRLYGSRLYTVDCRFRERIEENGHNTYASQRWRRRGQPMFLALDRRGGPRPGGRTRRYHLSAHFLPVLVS
Take `O=C(N/N=C/c1c[nH]c2ccccc12)c1cccc(Cl)c1`: the AC50 (as a rule, the midpoint of the concentration-response curve, whichever way the signal moves) is 15.5 µM. Turning to `O=C(Nc1ccc(S(=O)(=O)N2CCCC2)cc1)c1ccccc1`, the half-maximal activity concentration (AC50) was 36.6 µM. `Nc1ccc(C(=O)N/N=C/c2c[nH]c3ccccc23)cc1`: the AC50 was 24.3 µM. Same read-out and setting: with `COC(=O)C[C@H]1CC[C@@H]2[C@@H](COc3ccc(NC(=O)Nc4ccc(C#N)cc4)cc3C(=O)N2C)O1` the figure was > 38 µM (inactive); with `O=C(N/N=C/c1c[nH]c2ccccc12)c1cccs1`, 5.49 µM; with `CSc1ccc(/C=N/NC(=O)c2ccc3nc[nH]c3c2)cc1`, 9.97 µM. Same read-out and setting: with `Cc1cc(NC(=O)Nc2ccc3c(ccn3C)c2)sn1` the figure was 24.7 µM.

For `COc1cc(/C=N/NC(=O)c2cc3ccccc3[nH]2)ccc1O`, the AC50 is 10.1 µM.

Consider `CCc1cc(-c2[nH]ncc2-c2ccc3c(c2)OCCO3)c(O)cc1O`, for which the AC50 was 24 µM. On the same count and under the same terms, under `Nc1cccc(-c2nc3ccc(C(=O)c4ccccc4)cc3[nH]2)c1` stands 29.5 µM.

Turning to `O=C(N/N=C/c1c[nH]c2ccccc12)c1cccc(O)c1`, the AC50 is 0.318 µM.

Staying with this experiment, now noted: Recombinant FGF22 thermal shift, SYPRO orange fluorescence; at 19.5 µM (top of the series).
As to `Cc1[nH]c2ccccc2c1C(=O)NS(=O)(=O)Nc1ccc(Cl)cc1`, the “melting temperature shift, positive = stabilization” value (“melting temperature shift” for short) was “inactive”. Still for that read-out and setting: under `CC(C)c1c(C(=O)N/N=C/c2c[nH]c3ccccc23)nnn1-c1nonc1N` stands “inactive”; under `CC(=O)Nc1ccc(NC(=O)Nc2ccccc2)cc1`, “inactive”.

The experiment is the same for the next values; noted with them: Recombinant FGF22 thermal shift, SYPRO orange fluorescence; at 38 µM (top of the series).
Turning to `O=C(N/N=C/c1c[nH]c2ccccc12)c1ccc(O)c(O)c1`, the “melting temperature shift” value was “inactive”.

As for `O=C(Nc1cc(Cl)cc(Cl)c1)N[C@@H]1CC[C@@H](CCNS(=O)(=O)c2cccc(F)c2)O[C@H]1CO`, the “melting temperature shift” value was “inactive”. Still for that read-out and setting: with `O=C(Nc1nccs1)C1CC(=O)N(c2ccc(F)cc2)C1` (stereo not given) the entry was “inactive”; with `O=C(Nc1ccc(S(=O)(=O)N2CCCC2)cc1)c1cccs1`, “inactive”.

As to `CCN1C(=O)C(CC(=O)Nc2ccc(F)cc2)N(Cc2ccc3c(c2)OCO3)C1=S` (stereo not given), the “melting temperature shift” value was “inactive”. On to `Clc1ccc(Nc2ccc(NCc3ccccc3)nn2)cc1`, for which the “melting temperature shift” value is “inactive”. The same measure, in the same setting: under `O=C(N/N=C/c1cccc(Oc2ccccc2)c1)c1cccc(O)c1` stands “inactive”; under `CC(=O)Nc1cccc(C(=O)N/N=C/c2c[nH]c3ccccc23)c1`, “inactive”. Regarding `O=C(NCCc1c[nH]c2ccccc12)c1ccc(Cl)cc1`, the “melting temperature shift” value was “inactive”. The same measure, in the same setting: with `O=C(Nc1ccc(Cl)cc1)N[C@@H]1CC[C@@H](CCNS(=O)(=O)c2ccccc2F)O[C@H]1CO` the entry was “inactive”; with `CCNC(=O)C[C@@H]1CC[C@H]2[C@H](COc3ccc(NC(=O)Nc4ccc(Cl)cc4)cc3C(=O)N2C)O1`, “inactive”.

For `COC(=O)C[C@H]1CC[C@@H]2[C@@H](COc3ccc(NC(=O)Nc4cccc(C#N)c4)cc3C(=O)N2C)O1`, the “melting temperature shift” value was “inactive”. Still for that read-out and setting: with `Cc1ccc(OCCCC(=O)Nc2ccc(S(=O)(=O)N3CCOCC3)cc2)cc1` the entry was “inactive”. Turning to `Cc1ccc(S(=O)(=O)N2C[C@@H](O)COC[C@@H]3O[C@@H](CC(=O)NCc4ccc(Cl)c(Cl)c4)CC[C@H]32)cc1`, the “melting temperature shift” value was “inactive”. The same measure, in the same setting: under `CN(Cc1c(C(=O)N/N=C/c2ccc(O)cc2)nnn1-c1nonc1N)c1ccccc1` stands “inactive”. For `CCOc1cccc(C(=O)Nc2ccc3[nH]ncc3c2)c1`, the “melting temperature shift” value was “inactive”. Same read-out and setting: with `Cc1ccn(-c2ccc(NC(=O)c3cccs3)cc2)n1` the entry was “inactive”. The same measure, in the same setting: under `CCCNC(=O)COC(=O)c1ccccc1C(=O)N(C)C1CCCCC1` stands “inactive”. The same measure, in the same setting: under `O=C(N/N=C/c1ccc(C(F)(F)F)cc1)c1ccc(O)cc1` stands “inactive”. With `COc1ccc(Nc2nc3ccc(OC)cc3s2)cc1`, the “melting temperature shift” value is “inactive”. Turning to `O=S1(=O)N=C(N(Cc2cccs2)c2ccc(O)cc2)c2ccccc21`, the “melting temperature shift” value is “inactive”. As for `CCc1cc(-c2n[nH]c(C)c2-c2ccc3c(c2)OCCO3)c(O)cc1O`, the “melting temperature shift” value is “inactive”. For the compound `Cc1cc(C(=O)N/N=C/c2c[nH]c3ccccc23)cs1`, the “melting temperature shift” value was “inactive”. Same read-out and setting: with `CCN1C/C(=C/c2cccs2)c2nc3ccccc3c(C(=O)O)c2C1` the entry was “inactive”. Same read-out and setting: under `O=C(C[C@H]1CC[C@@H]2[C@H](COC[C@H](O)CN2S(=O)(=O)c2cccc(Cl)c2)O1)Nc1ccccc1` stands “inactive”; under `CC(=O)Nc1cccc(NC(=O)c2ccc3[nH]c(C)c(C)c3c2)c1`, “inactive”; under `CC(=O)c1ccc(NC(=O)Nc2cccnc2)cc1`, “inactive”. On to `O=S(=O)(Nc1nnc(C(F)(F)F)s1)c1ccc(Cl)cc1`, for which the “melting temperature shift” value is “inactive”. On the same count and under the same terms, under `COC(=O)C1=C(CS(=O)(=O)c2cc(OC)ccc2OC)NC(=O)NC1c1ccc(O)c(OC)c1` (stereo not given) stands “inactive”. Still for that read-out and setting: under `O=C(Nc1cc(Cl)cc(Cl)c1)N[C@@H]1CC[C@@H](CCNS(=O)(=O)c2cccc(F)c2)O[C@@H]1CO` stands “inactive”. On to `O=C(Nc1ccc(S(=O)(=O)N2CCOCC2)cc1)c1ccc(F)cc1`, for which the “melting temperature shift” value was “inactive”. Regarding `O=C(O)Cc1ccc(NC(=O)c2ccc(Cl)c(Cl)c2)cc1`, the “melting temperature shift” value is “inactive”. The same measure, in the same setting: under `Cc1[nH]c2ccc(C(=O)OCC(=O)Nc3cccc(S(N)(=O)=O)c3)cc2c1C` stands “inactive”. On the same count and under the same terms, with `COc1ccc(-c2nc(-c3ccc(O)cc3O)cs2)cc1OC` the entry was “inactive”. Still for that read-out and setting: with `COc1ccc(C)cc1NS(=O)(=O)c1ccc(NS(=O)(=O)c2ccc(NC(C)=O)cc2)cc1` the entry was “inactive”.

For the compound `Cc1ccc(S(=O)(=O)N2C[C@H](O)COC[C@H]3O[C@H](CC(=O)NCc4ccc(Cl)c(Cl)c4)CC[C@@H]32)cc1`, the “melting temperature shift” value is “inactive”.

(Values after PubChem BioAssay AID743116 (Broad Institute, 2013).)
